Laboratory results published in patent publication US12264148B2, “Ivosidenib forms and pharmaceutical compositions” (Servier Pharmaceuticals LLC, priority 2018, dated 2025).
Values after ≈ are worked out from the molar mass of the structure shown. Blank lines part the entries; values can stand above or below the compound they belong to.

Columns and labels:
[1] = test system: bacterial reverse mutation; details: Registered substances; cited from earlier work
[2] = test system: bacterial reverse mutation; experiment: In vitro bacterial reverse mutation assay (Ames)
[3] = test system: mutant IDH1 (mIDH1); details: cited from earlier work
[4] = test system: mutant IDH2 (mIDH2); details: tool compound; Rohle et al. Science 2013; cited from earlier work
[5] = test system: mIDH1-driven gliomas; details: some model systems; Rohle et al. Science 2013; cited from earlier work
[6] = Dissolution of 250 mg tablets spiked with crystalline form, Medium A (pH 6.8, 0.6% SDS); type: physicochemical; details: 250 mg tablets vs target (nominal) formulation
From the text: (§1) In order to assess the impact of crystalline polymorphic forms on dissolution profiles, variant tablets were manufactured with SDI spiked with drug substance of two different crystalline polymorphs: Form B, and Form L, which forms are as described above. As used herein, the term “spiked” or “spiking” is used consistently with usage in the field of pharmaceutical manufacturing, namely the introduction of a particular form to the crystallization solution to encourage nucleation and growth. These forms were selected because it was determined that if an SDI should crystallize, these two forms would be most likely to be present. However, it is noted that the SDI can be reliably made in completely amorphous form, with no detectable crystalline form present even under stressed conditions.
250 mg tables were manufactured by adding 50 mg (20% w/w) of crystalline Form L or Form B with the ivosidenib SDI (therefore, amorphous SDI was present at 80% w/w as a measure of the active ingredient.) […]
Similar dissolution studies were undertaken with Medium B (pH 6.8, 0.4% SDS). Similarity factors (f2) were calculated to assess the dissolution profiles, compared to a target formulation. […]

[7] = Dissolution of 250 mg tablets spiked with crystalline form, Medium B (pH 6.8, 0.4% SDS); type: physicochemical; details: 250 mg tablets vs target (nominal) formulation
From the text: as §1
250 mg tables were manufactured by adding 50 mg (20% w/w) of crystalline Form L or Form B with the ivosidenib SDI (therefore, amorphous SDI was present at 80% w/w as a measure of the active ingredient.)
Similar dissolution studies were undertaken with Medium B (pH 6.8, 0.4% SDS). Similarity factors (f2) were calculated to assess the dissolution profiles, compared to a target formulation. The similarity factors are included in Table 21.

[8] = Solubility of solid state forms in methanol; type: physicochemical
[9] = Solubility in 5:95 v/v iPrOAc:heptane slurry; type: physicochemical; details: remained a thick slurry
[10] = Competitive slurries of Form L, Form M and Form N; type: physicochemical; details: Form L, N in dichloromethane, heptane, tBME, acetone, ambient or 35/50 °C
Protocol: The temperature was increased to 70° C. to dissolve material. Anti-solvent addition (60 mL heptane) at 60 mL/h was carried out at 70° C. Once the anti-solvent addition was complete, the reaction was cooled to 60° C. and seeded with 0.63 g of Form B ivosidenib, which was stirred at 60° C. for 4 h then cooled to 15° C. over 10 h. An anti-solvent addition was started (308 mL heptane) at 75 mL/h, 15° C., 200 rpm. When the anti-solvent addition finished, the mixture was stirred at 15° C. for 2 h then isolated solid through filtration using a Buchner funnel (120 mm Ø) and washed with 246 mL of iPrOAc:heptane (1:1 v/v). In isopropyl acetate:heptane 5:95 v/v, Form N was retained, while in isopropyl acetate:heptane 20:80 v/v, a mixture of Form B and Form N was obtained.
The following procedure was followed for competitive slurry trials of the Form L, Form M, and Form N polymorphs: Approximately 50 or 75 mg of each different solid form was weighed out into 1.5 mL screw-cap vials. […]
Aliquots (100 μL or 25 μL) of appropriate solvent added as required to obtain a mobile slurry which was then stirred at either ambient (ca. 23° C.) or elevated (35 or 50° C.) temperature for ca. 21 or 68.5 h (see Table 4 for details). Solids were isolated solid by centrifugation and analyzed by XRPD. […]

[11] = potential impurities of ivosidenib drug substance; cited from earlier work
[12] = Approximate solubility of ivosidenib freebase in 20 solvent systems at RT; type: physicochemical
Protocol: Approximate solubility of ivosidenib freebase was determined in 20 solvent systems at RT. In the experiment, ˜2 mg of ivosidenib was added into a 3-mL glass vial, followed by the addition of corresponding solvent. The solvent was added by 100 μL step wise until the solution was visually clear or a total volume of 2 mL was reached. This solubility information was used to select solvents for the polymorph screening.

[13] = test system: mutant IDH1 proteins; details: U.S. Publication No. 2013/0190249 A1; cited from earlier work

SMILES: Clc1ccccc1C(Cl)Cl [1-chloro-2-(dichloromethyl)benzene]
Ames result reported by ECHA [1]: Ames-negative

SMILES: ClCc1ccccc1Cl [2-chlorobenzyl chloride]
Ames result reported by ECHA [1]: Ames-negative

SMILES: Fc1cncc(/N=C/c2ccccc2Cl)c1 [(E)-1-(2-chlorophenyl)-N-(5-fluoropyridin-3-yl) methanimine]
Ames test result [2]: negative

SMILES: Cc1ccccc1C(C(=O)NC1CCCCC1)N(C(=O)Cn1ccnc1C)c1cccc(F)c1 (stereo not drawn) [AGI-5198]
inhibition of mutant IDH1 ([3]; tool compound, Rohle et al. Science 2013): inhibit mutant IDH1 (mIDH1) | inhibition of mutant IDH2 [4]: not mutant IDH2 (mIDH2) | growth of mIDH1-driven gliomas [5]: repress growth

Similarity factor (f2) result for dissolution medium A [6]: 26.0 | Similarity factor (f2) result for dissolution medium B [7]: 43.1
SMILES: N#Cc1ccnc(N2C(=O)CC[C@H]2C(=O)N(c2cncc(F)c2)[C@H](C(=O)NC2CC(F)(F)C2)c2ccccc2Cl)c1 [Form B]

Similarity factor (f2) result for dissolution medium A [6]: 28.9 | Similarity factor (f2) result for dissolution medium B [7]: 48.5
SMILES: N#Cc1ccnc(N2C(=O)CC[C@H]2C(=O)N(c2cncc(F)c2)[C@H](C(=O)NC2CC(F)(F)C2)c2ccccc2Cl)c1 [Form L]

solubility in methanol [8]: 109 mg/mL (≈ 187 mM) | solubility ([8]; organic solvent or mixture, thermodynamic from solid, compared with ~70 mg/mL AG-120 in the SDI spray solution, read-out: solubility): ~110 mg/mL (≈ 189 mM) | solubility in 5:95 v/v iPrOAc:heptane [9]: poorly soluble
SMILES: N#Cc1ccnc(N2C(=O)CC[C@H]2C(=O)N(c2cncc(F)c2)[C@H](C(=O)NC2CC(F)(F)C2)c2ccccc2Cl)c1 [Form M]

solubility ([8]; compared with ~70 mg/mL AG-120 in the SDI spray solution): ~110 mg/mL (≈ 189 mM) | solubility ([8]; organic solvent or mixture, thermodynamic from solid, read-out: solubility in methanol): 113 mg/mL (≈ 194 mM) | solubility in 5:95 v/v iPrOAc:heptane [9]: poorly soluble | most stable anhydrous form in competitive slurries [10]: stable anhydrous form
SMILES: N#Cc1ccnc(N2C(=O)CC[C@H]2C(=O)N(c2cncc(F)c2)[C@H](C(=O)NC2CC(F)(F)C2)c2ccccc2Cl)c1 [Form N]

SMILES: O=Cc1ccccc1 [benzaldehyde]
mutagenicity according to literature [11]: known mutagens

SMILES: c1ccccc1 [benzene]
mutagenicity according to literature [11]: known mutagens

SMILES: ClCc1ccccc1 [benzyl chloride]
mutagenicity according to literature [11]: known mutagens

Solubility (mg/mL) ([12]; Acetic acid, RT): 40.4~20.2 mg/mL | Solubility (mg/mL) ([12]; DMSO, RT): 46.6~23.2 mg/mL | Solubility (mg/mL) ([12]; IPA, RT): 38.8~19.4 mg/mL | Solubility (mg/mL) ([12]; IPAC, RT): 40.2~20.1 mg/mL | Solubility (mg/mL) ([12]; MIBK, RT): 18.6~12.0 mg/mL | Solubility (mg/mL) ([12]; Toluene, RT): 18.6~12.4 mg/mL | solubility ([12]; organic solvent or mixture, thermodynamic from solid, 1,4-Dioxane, RT): > 41.6 mg/mL | solubility ([12]; organic solvent or mixture, thermodynamic from solid, 2-MeTHF, RT): > 41.4 mg/mL | solubility ([12]; organic solvent or mixture, thermodynamic from solid, ACN, RT): > 36.8 mg/mL | solubility ([12]; organic solvent or mixture, thermodynamic from solid, Acetone, RT): > 36.4 mg/mL | solubility ([12]; organic solvent or mixture, thermodynamic from solid, CHCl3, RT): > 38.2 mg/mL | solubility ([12]; organic solvent or mixture, thermodynamic from solid, DMA, RT): > 24.5 mg/mL | solubility ([12]; organic solvent or mixture, thermodynamic from solid, EtOAc, RT): > 41.8 mg/mL | solubility ([12]; organic solvent or mixture, thermodynamic from solid, EtOH, RT): > 39.4 mg/mL | solubility ([12]; organic solvent or mixture, thermodynamic from solid, Heptane, RT): < 0.95 mg/mL | solubility ([12]; organic solvent or mixture, thermodynamic from solid, MTBE, RT): > 37.8 mg/mL | solubility ([12]; organic solvent or mixture, thermodynamic from solid, MeOH, RT): > 47.6 mg/mL | solubility ([12]; organic solvent or mixture, thermodynamic from solid, NMP, RT): > 42 mg/mL | solubility ([12]; organic solvent or mixture, thermodynamic from solid, THF, RT): > 39 mg/mL | solubility ([12]; water, thermodynamic from solid, H2O, RT): < 1.26 mg/mL
SMILES: N#Cc1ccnc(N2C(=O)CC[C@H]2C(=O)N(c2cncc(F)c2)[C@H](C(=O)NC2CC(F)(F)C2)c2ccccc2Cl)c1 [ivosidenib, (S)—N—((S)-1-(2-Chlorophenyl)-2-(3,3-difluorocyclobutylamino)-2-oxoethyl)-1-(4-cyanopyridin-2-yl)-N-(5-fluoropyridin-3-yl)-5-oxopyrrolidine-2-carboxamide]
inhibition of mutant IDH1 proteins in biochemical assays ([3]; U.S. Publication No. 2013/0190249 A1): inhibitor | inhibition of mutant IDH1 proteins in cellular assays [13]: inhibitor
